Source: publication PMC5357622, “Chelation Motifs Affecting Metal-dependent Viral Enzymes: N′-acylhydrazone Ligands as Dual Target Inhibitors of HIV-1 Integrase and Reverse Transcriptase Ribonuclease H Domain” (Frontiers in Microbiology, 2017)
Several values for one entry are separate records, joined by “and”; a condition that tells them apart may be missing. Identical values can stand only once.

Columns and labels:
[1] = molecular target: T1, HIV-1 RT-associated RNase H (Human immunodeficiency virus type 1 group M subtype B, UniProt P03366); assay: HIV-1 RT-associated RNase H assay (fluorescent RNA/DNA hybrid); assay type: biochemical
T1 construct: Human immunodeficiency virus type 1 heterodimeric RT was expressed and purified; made in house
Experimental: Human immunodeficiency virus type 1 heterodimeric RT was expressed and purified as previously described ([Esposito et al., 2011]; [Meleddu et al., 2014]). The HIV-1 RT-associated RNase H activity was measured as described ([Corona et al., 2014a]; [Meleddu et al., 2015]). Briefly, 20 ng of HIV-1 RT was incubated in 100 μL reaction volume containing 50 mM Tris-HCl (pH 7.8), 6 mM MgCl2, 1 mM DTT, 80 mM KCl, hybrid RNA/DNA (5′-[…]-3′-Fluorescein, 5′-[…]-3′-Dabcyl) and 2 nM RT. The reaction mixture was incubated for 1 h at 37°C; the reaction was stopped by addition of EDTA and products were measured with a Victor 3 (Perkin Elmer model 1420-051) equipped with filters for 490/528 nm (excitation/emission wavelength).

[2] = molecular target: HIV-1 IN in presence of LEDGF/p75 (Human immunodeficiency virus type 1 group M subtype B, UniProt P03366); assay: HIV-1 IN/LEDGF HTRF LEDGF-dependent integration assay
Experimental: The IN-LEDGF/p75 dependent assay allows to measure the inhibition of 3′ processing and strand transfer IN reactions in presence of recombinant LEDGF/p75 protein, as previously described ([Tintori et al., 2015]). Briefly, 50 nM IN was pre-incubated with increasing concentration of compounds for 1 h at room temperature in reaction buffer containing 20 mM HEPES pH 7.5, 1 mM DTT, 1% glycerol, 20 mM MgCl2, 0.05% Brij-35 and 0.1 mg/ml BSA. DNA donor substrate, DNA acceptor substrate and 50 nM LEDGF/p75 protein were added and incubated at 37°C for 90 min. After the incubation, 4 nM of Europium-Streptavidin were added to the reaction mixture and the HTRF signal was recorded using a Perkin Elmer Victor 3 plate reader using a 314 nm for excitation wavelength and 668 and 620 nm for the wavelength of the acceptor and the donor substrates emission, respectively.

HIV-1 (strain IIIB) = assay: Cell-based HIV assay in MT-4 cells (MTT, virus-induced cytopathic effect); conditions: Human immunodeficiency virus 1, IIIB
Experimental: (§1) The procedure to determine anti-HIV activity and cytotoxicity of the compounds in human lymphocyte MT-4 cells was published elsewhere ([Pannecouque et al., 2008]). Briefly, serial dilutions of the compounds were added to 96-well plates containing the MT-4 cells. To the virus-infected wells, 100–300 CCID50 (50% cell culture infectious dose-50%) of HIV-1 (strain IIIB) or HIV-2 (strain ROD) was added. The mock-infected wells received the compounds without the virus. After 5 days incubation, the spectrophotometric MTT assay was performed to determine the effect of the compounds on the viability of the mock- and HIV-infected cells.

in vitro = assay type: cell-based; conditions: human
Experimental: as §1

Sequence of HIV-1 IN in presence of LEDGF/p75 (O75475 whole entry, other chains not shown): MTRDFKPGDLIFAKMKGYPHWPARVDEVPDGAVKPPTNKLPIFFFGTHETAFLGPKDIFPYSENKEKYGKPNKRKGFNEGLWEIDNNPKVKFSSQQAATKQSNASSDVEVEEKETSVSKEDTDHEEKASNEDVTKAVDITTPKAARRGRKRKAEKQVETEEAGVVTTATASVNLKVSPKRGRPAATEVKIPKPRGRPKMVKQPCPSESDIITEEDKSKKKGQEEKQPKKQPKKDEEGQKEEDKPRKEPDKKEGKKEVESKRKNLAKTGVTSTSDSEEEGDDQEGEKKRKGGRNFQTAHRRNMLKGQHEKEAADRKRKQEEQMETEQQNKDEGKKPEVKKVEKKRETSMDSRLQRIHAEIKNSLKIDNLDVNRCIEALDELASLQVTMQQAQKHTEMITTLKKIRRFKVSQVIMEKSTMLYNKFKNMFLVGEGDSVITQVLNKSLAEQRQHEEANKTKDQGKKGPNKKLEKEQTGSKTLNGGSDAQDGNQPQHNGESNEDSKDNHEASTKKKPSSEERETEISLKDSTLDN

| Compound | IC50 [1] | IC50 [2] [µM] | also measured |
| --- | --- | --- | --- |
| CCCCCCCC(=O)N/N=C/c1cccc(O)c1O [Compound 1, N′-2,3-dihydroxy benzylidene heptyl hydrazone] | ~60 µM and 61 µM | > 100 |  |
| CCCCCCCC(=O)N/N=C/c1cccc(OC)c1O [Compound 2] | ~60 µM and 62 µM |  |  |
| O=C(N/N=C/c1cccc(O)c1O)c1ccccc1 [Compound 3] | > 100 µM | > 100 | HIV-1 RNase H IC50 [1]: completely abolished |
| COc1cccc(/C=N/NC(=O)c2ccccc2)c1O [Compound 4] | > 100 µM |  | HIV-1 RNase H IC50 [1]: completely abolished |
| O=C(N/N=C/c1cccc(O)c1O)c1ccccc1O [Compound 5] | > 100 µM |  | HIV-1 RNase H IC50 [1]: No inhibition |
| COc1cccc(/C=N/NC(=O)c2ccccc2O)c1O [Compound 6] | 37 ± 5 µM | > 100 |  |
| O=C(N/N=C/c1ccc(O)c(O)c1O)c1ccccc1O [Compound 7] | 25 µM and 25.3 µM | 7.1 ± 0.2 |  |
| O=C(N/N=C/c1cc(O)c(O)cc1O)c1ccccc1O [Compound 8] | 8.8 ± 3.1 µM | 30 ± 1 |  |
| O=C(N/N=C/c1c(O)cc(O)cc1O)c1ccccc1O [Compound 9] | 9.6 ± 3.4 µM | 9.4 ± 0.4 |  |
| O=C(N/N=C/c1cc(O)c(O)c(O)c1)c1ccccc1O [Compound 10] | 4.1 ± 0.2 µM | > 100 |  |
| O=C(N/N=C/c1ccccc1)c1cc(O)c(O)c(O)c1 [Compound 11] | 2.6 ± 0.6 µM | > 100 |  |
| O=C(N/N=C/c1ccccn1)c1cc(O)c(O)c(O)c1 [Compound 12] | 3.2 ± 0.5 µM | > 100 |  |
| O=C(N/N=C/c1ccccc1O)c1cc(O)c(O)c(O)c1 [Compound 13] | 2.3 ± 0.7 µM | > 100 |  |
| O=C(N/N=C/c1cccc(O)c1O)c1cc(O)c(O)c(O)c1 [Compound 14] | 3.1 ± 0.5 µM | > 100 |  |
| COc1cccc(/C=N/NC(=O)c2cc(O)c(O)c(O)c2)c1O [Compound 15] | 0.92 ± 0.02 µM | > 100 |  |
| O=C(N/N=C/c1cc(O)ccc1O)c1cc(O)c(O)c(O)c1 [Compound 16] | 2.1 ± 0.1 µM | 69 ± 5 |  |
| COc1ccc(O)c(/C=N/NC(=O)c2cc(O)c(O)c(O)c2)c1 [Compound 17] | 2 ± 0.5 µM | > 100 |  |
| O=C(N/N=C/c1ccc(O)cc1O)c1cc(O)c(O)c(O)c1 [Compound 18] | 1.7 ± 0.1 µM | 16 ± 3 | RNase H inhibition potency relative to IN activity ([1]; RNase H versus IN): ninefold more potently; EC50 (HIV-1 (strain IIIB); MT4, 120 h, read-out: EC50 for HIV-1 (50% protection from virus-induced cytopathic effect), 5 days, mean ± SD of two independent tests): 17 ± 4 µM; inhibition at 25 µM (HIV-1 (strain IIIB); MT4, at a concentration of 25 μM): 55 to 82%; CC50 at 5 days (in vitro): 61 µM |
| COc1cc(C(=O)N/N=C/c2cc(O)ccc2O)cc(OC)c1OC [Compound 19] | > 100 µM | > 100 |  |
| O=C(N/N=C/c1ccc(O)c(O)c1O)c1cc(O)c(O)c(O)c1 [Compound 20] | 0.175 µM and 0.17 µM | 0.085 ± 0.025 |  |
| O=C(N/N=C/c1cc(O)c(O)cc1O)c1cc(O)c(O)c(O)c1 [Compound 21] | 0.62 ± 0.1 µM | 0.08 ± 0.01 |  |
| O=C(N/N=C/c1c(O)cc(O)cc1O)c1cc(O)c(O)c(O)c1 [Compound 22] | 9.7 ± 1.6 µM | 1.8 ± 0.1 |  |
| O=C(N/N=C/c1cc(O)c(O)c(O)c1)c1cc(O)c(O)c(O)c1 [Compound 23] | 0.18 ± 0.03 µM | 0.165 ± 0.025 |  |
| CCOC(=O)C(=O)CC(=O)/C=C/c1cccn1Cc1ccc(F)cc1 [RDS1643, reference compound] | 7.5 ± 0.9 µM |  |  |
